# Results published in US20260265300A1, “TARGETING PRAC1 IN STEROID HORMONE DRIVEN CANCER” (Fred Hutchinson Cancer Center, priority 2023, published 2026).
# “Also recorded” adds a separate entry of the source. Where two headings read alike, the source gives them in different places.
# What was measured:
# LNCaP-abl cells [1] = assay: Cell viability of LNCaP-abl cells exposed to PRAC1 peptides (CellTiter-Blue, 72 hours); format: cell-based; conditions: increasing concentrations of peptide
# Method: (§1) PRAC1-negative LNCaP-abl cells were grown and exposed to increasing concentrations of the cell-permeable peptides, and cell viability was measured after 72 hours using CellTiter-Blue® (Patel et al., Cancer Res. Commun. 2(5):277-285 2022. doi: 10.1158/2767-9764.crc-21-0156. Epub 2022 May 2). […] The PRAC-F6 peptide was further tested for cell permeability.
# (§2) Cell viability of androgen receptor negative and androgen receptor positive cells was tested in vitro. The androgen positive cell lines LNCaP and LNCaP-abl and the androgen receptor negative cell lines PC3 and DU145 were incubated with the PRAC-F6, carboxy terminal peptide including the TAT cell penetration peptide. Cell viability was measured after 72 hours using CellTiter-Blue®.
# LNCaP-abl cells were incubated with increasing concentrations of PRAC1 peptides, and cell viability was determined after 72 hours using CellTiter-Blue®. […]
# LNCaP-abl cells [2] = assay: Proliferation of LNCaP-abl cells with enzalutamide by live cell imaging; format: cell-based; conditions: 10 μM enzalutamide
# Method: Resistance to ARSI therapy is a major driver of PC related mortality. In this example, PRAC1-negative LNCaP-abl cells were grown in fully supplemented growth media (RPMI plus 10% FBS) in the absence or presence of 10 μM enzalutamide. Cell proliferation was determined longitudinally by live cell imaging using a Cytation™ 5 imaging instrument. […] Restoring PRAC1 function can result in re-sensitization of ARSI therapy (FIG. 4).
# LNCaP-abl cells [3] = conditions: N-terminally FITC-labeled peptide, flow cytometry
# Method: as §1
# DU145 = assay: Cell viability of androgen receptor negative DU145 cells (CellTiter-Blue, 72 hours); format: cell-based; conditions: DU145 (AR negative)
# Method: as §2, with “peptide.” for “peptide. Cell viability was measured after 72 hours using CellTiter-Blue®.”
# LNCaP = assay: Cell viability of androgen receptor positive LNCaP cells (CellTiter-Blue, 72 hours); format: cell-based; conditions: LNCaP (AR positive)
# Method: as §2, with “peptide.” for “peptide. Cell viability was measured after 72 hours using CellTiter-Blue®.”
# [4] = system: human prostate cancer LAPC4-CR cells; assay: In vivo prostate cancer xenograft model (LAPC4-CR in castrated NSG mice); conditions: castrated male NSG mice, intraperitoneally daily, versus scrambled control peptide
# Method: The peptide was also tested in an in vivo in prostate cancer xenograft model. Male NOD SCID gamma (NSG) mice were chemically castrated by subcutaneous injection of degarelix. Mice were then engrafted with PRAC1-negative human prostate cancer LAPC4-CR cells. When tumors reached palpable size, PRAC1 peptide PRAC-F6 or a scrambled control peptide (sc) were delivered intraperitoneally daily. Tumor size was measured by caliper.
# PC3 = assay: Cell viability of androgen receptor negative PC3 cells (CellTiter-Blue, 72 hours); format: cell-based; conditions: PC3 (AR negative)
# Method: as §2, with “peptide.” for “peptide. Cell viability was measured after 72 hours using CellTiter-Blue®.”
# MCF7 = assay: Cell viability of MCF7 breast cancer cells (CellTiter-Blue); format: cell-based; conditions: MCF7 (estrogen and progesterone receptor positive), relative to scrambled control peptide
# Text: Estrogen and progesterone receptor positive breast cancer cell line MCF7 with PRAC1 peptide […] FIG. 8A.
# AR LBD = target: T1, AR LBD (Homo sapiens, UniProt P10275); assay: Recombinant protein-based binding assay by surface plasmon resonance; conditions: highly stringent conditions (0.5M NaCl)
# T1 sequence (P10275 669-900 limits assumed): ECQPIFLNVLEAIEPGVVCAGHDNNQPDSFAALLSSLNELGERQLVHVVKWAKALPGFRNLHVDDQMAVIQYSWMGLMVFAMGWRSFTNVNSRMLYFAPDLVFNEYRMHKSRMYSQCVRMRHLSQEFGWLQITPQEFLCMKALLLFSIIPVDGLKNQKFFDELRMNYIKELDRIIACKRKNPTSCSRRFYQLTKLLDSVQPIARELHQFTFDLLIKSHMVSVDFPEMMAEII
# full-length AR = target: T2, full-length AR (Homo sapiens, UniProt P10275); assay: Binding to purified full-length AR and effect on its DNA binding activity; format: biochemical
# T2 construct: made in house
# T2 sequence (P10275 1-920): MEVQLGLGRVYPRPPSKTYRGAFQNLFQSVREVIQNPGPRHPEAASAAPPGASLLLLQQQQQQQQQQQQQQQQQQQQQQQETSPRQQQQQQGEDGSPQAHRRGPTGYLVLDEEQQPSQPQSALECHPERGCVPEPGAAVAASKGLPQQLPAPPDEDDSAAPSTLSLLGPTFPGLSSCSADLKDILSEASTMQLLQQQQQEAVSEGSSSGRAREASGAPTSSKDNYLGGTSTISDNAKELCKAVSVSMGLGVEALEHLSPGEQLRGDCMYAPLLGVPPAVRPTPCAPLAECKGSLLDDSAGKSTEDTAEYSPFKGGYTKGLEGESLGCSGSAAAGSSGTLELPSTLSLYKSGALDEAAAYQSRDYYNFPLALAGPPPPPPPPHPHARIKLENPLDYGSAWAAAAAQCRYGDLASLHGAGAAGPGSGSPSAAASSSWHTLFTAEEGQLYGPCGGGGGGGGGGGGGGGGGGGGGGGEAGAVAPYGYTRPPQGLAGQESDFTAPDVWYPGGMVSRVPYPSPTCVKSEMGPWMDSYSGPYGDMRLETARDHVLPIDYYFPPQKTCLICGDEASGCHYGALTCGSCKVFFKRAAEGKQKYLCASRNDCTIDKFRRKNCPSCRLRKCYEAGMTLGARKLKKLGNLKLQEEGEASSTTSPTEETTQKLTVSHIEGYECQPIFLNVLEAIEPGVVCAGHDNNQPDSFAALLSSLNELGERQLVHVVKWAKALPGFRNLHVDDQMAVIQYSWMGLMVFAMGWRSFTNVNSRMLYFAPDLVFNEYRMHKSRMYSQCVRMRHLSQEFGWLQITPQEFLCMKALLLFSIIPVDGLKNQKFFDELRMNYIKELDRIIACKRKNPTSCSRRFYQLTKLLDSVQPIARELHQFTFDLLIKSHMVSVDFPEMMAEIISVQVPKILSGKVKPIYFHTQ
molecule,measurement,setting,value
"PPRVLFSLIAKHLLRKKRRQRRRG [SEQ ID NO:28, arginine-to-alanine mutant]",cell viability,LNCaP-abl cells [1],attenuated activity on cell viability
CNC(=O)c1ccc(N2C(=S)N(c3ccc(C#N)c(C(F)(F)F)c3)C(=O)C2(C)C)cc1F [enzalutamide],cell proliferation / sensitivity to enzalutamide,"LNCaP-abl cells [2]; LNCaP-abl cells transduced with control vector (RFP), RPMI plus 10% FBS",resistant to enzalutamide across a broad concentration range
same,cell proliferation / sensitivity to enzalutamide,LNCaP-abl cells [2]; LNCaP-abl cells with re-expression of PRAC1 (lentiviral ORF1),sensitization to enzalutamide and significant growth suppression; also recorded: restoration of sensitivity to this drug
"LFSLIRKHLLRKKRRQRRRG [PRAC1-F6, C-terminus of PRAC1 linked to the cell permeable TAT peptide]",cell viability,LNCaP-abl cells [1],biologically active in reducing cell viability; also recorded: profound dose-dependent decrease in cell viability
same,cell viability,LNCaP-abl cells [1]; listed as PRAC-F6,profound loss of viability
same,peptide uptake (cellular internalization),LNCaP-abl cells [3]; listed as PRAC-F6,rapid cellular internalization
same,peptide uptake (cellular internalization),LNCaP-abl cells [3]; listed as SEQ ID NO:17,uptake
same,cell viability,DU145,Only AR-expressing cell lines show profound dose-dependent decrease in cell viability
same,cell viability,DU145; listed as PRAC-F6,only AR-expressing cell lines show a profound loss of viability
same,cell viability,LNCaP,profound dose-dependent decrease in cell viability
same,cell viability,LNCaP; listed as PRAC-F6,profound loss of viability
same,tumor growth (tumor size by caliper),[4],suppression of LAPC4-CR tumor growth
same,tumor growth (tumor size by caliper),[4]; listed as PRAC-F6,suppression of tumor growth
same,cell viability,PC3,Only AR-expressing cell lines show profound dose-dependent decrease in cell viability
same,cell viability,PC3; listed as PRAC-F6,only AR-expressing cell lines show a profound loss of viability
"PPRVLFSLARKHLLRKKRRQRRRG [SEQ ID NO:27, isoleucine-to-alanine substitution mutant]",cell viability,LNCaP-abl cells [1],no effect on cell viability
PPRVLFSLIRKHLLRKKRRQRRRG [SEQ ID NO:18],cell viability,LNCaP-abl cells [1],profound anti-tumor cell activity
same,cell viability,MCF7,dose-dependent decrease in cell viability; also recorded: dose-dependent decrease is cell viability
"MLACKVRQAGFWSPPLQREQRCCAPISQIKDRPILLPPRVLFSLIRKHLL (listed as Homo sapiens) [PRAC1, PRAC1 protein encoded by ORF1 of PRAC1 gene]",binding to AR LBD,AR LBD,specifically binds the AR LBD
same,binding to full-length AR and change of its DNA binding activity,full-length AR,specifically binds and alters full-length AR's DNA binding activity
